Reference: ChEMBL document CHEMBL1909046, “DrugMatrix in vitro pharmacology data”

Experiments:
[1] = molecular target: Tyrosine-protein kinase Fyn (Homo sapiens, UniProt P06241); test: biochemical; assay type: cell-based, Insect cells; details: insect cells;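 also: enzymatic inhibition of Fyn kinase activity measured with Poly(Glu:Tyr) as the phosphorylation substrate; in other assays of this panel Not Active means under 50% inhibition at 10 µM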
[2] = DRUGMATRIX: Purinergic P2X radioligand binding (ligand: [3H] alpha, beta-Methylene-ATP); assay type: cell membranes, Oryctolagus cuniculus, New Zealand albino, Urinary bladder, Membrane; details: Not Active = under 50% inhibition at 10 µM
[3] = molecular target: Sodium-dependent dopamine transporter (Homo sapiens, UniProt Q01959); test: DRUGMATRIX: Dopamine Transporter radioligand binding (ligand: [125I] RTI-55); assay type: cell membranes, CHO-K1, Membrane; details: cho-k1; Not Active = under 50% inhibition at 10 µM
[4] = DRUGMATRIX: Phosphodiesterase PDE3 enzyme inhibition (substrate: [3H]cAMP + cAMP); assay type: tissue-based, Homo sapiens; details: platelet; Not Active = under 50% inhibition at 10 µM
Cytochrome P450 2C19 = Cytochrome P450 2C19 (Homo sapiens, UniProt P33261); details: bti-tn-5b1-4; also: in other assays of this panel Not Active means under 50% inhibition at 10 µM
[5] = DRUGMATRIX: Glutamate, NMDA, Phencyclidine radioligand binding (ligand: [3H] TCP); assay type: cell membranes, Rattus norvegicus, Wistar, Cerebral cortex, Membrane; details: Not Active = under 50% inhibition at 10 µM
[6] = molecular target: 5-hydroxytryptamine receptor 4 (Cavia porcellus, UniProt O70528); assay type: cell membranes, Dunkin-Hartley, Striatum, Membrane; also: in other assays of this panel Not Active means under 50% inhibition at 10 µM
[7] = molecular target: Beta-3 adrenergic receptor (Homo sapiens, UniProt P13945); test: DRUGMATRIX: Adrenergic beta3 radioligand binding (ligand: [125I] Cyanopindolol); assay type: cell membranes, HEK293, Membrane; details: hek293; Not Active = under 50% inhibition at 10 µM
[8] = molecular target: T1, Muscarinic acetylcholine receptor M4 (Homo sapiens, UniProt P08173); assay type: cell membranes, CHO-K1, Membrane; details: cho-k1; also: in other assays of this panel Not Active means under 50% inhibition at 10 µM
T1 sequence (P08173 whole entry): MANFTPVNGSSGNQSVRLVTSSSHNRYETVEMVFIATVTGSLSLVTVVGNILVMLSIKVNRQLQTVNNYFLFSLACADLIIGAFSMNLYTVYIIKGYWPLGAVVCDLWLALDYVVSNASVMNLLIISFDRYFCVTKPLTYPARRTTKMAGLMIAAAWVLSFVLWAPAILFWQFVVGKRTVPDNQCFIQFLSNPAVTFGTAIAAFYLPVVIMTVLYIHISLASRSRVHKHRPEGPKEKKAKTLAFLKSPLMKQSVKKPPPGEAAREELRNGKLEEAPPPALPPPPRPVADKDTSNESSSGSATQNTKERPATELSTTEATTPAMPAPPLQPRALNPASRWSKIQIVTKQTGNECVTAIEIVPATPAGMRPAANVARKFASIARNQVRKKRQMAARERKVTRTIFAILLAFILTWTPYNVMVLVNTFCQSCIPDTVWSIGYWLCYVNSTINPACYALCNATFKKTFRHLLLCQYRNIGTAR

Histamine H2 receptor = Histamine H2 receptor (Homo sapiens, UniProt P25021); assay type: cell membranes, CHO-K1, Membrane; details: cho-k1; also: in other assays of this panel Not Active means under 50% inhibition at 10 µM
Substance-K receptor = molecular target: T2, Substance-K receptor (Homo sapiens, UniProt P21452); assay type: cell membranes, CHO, Membrane; details: cho; also: in other assays of this panel Not Active means under 50% inhibition at 10 µM
T2 sequence (P21452 whole entry): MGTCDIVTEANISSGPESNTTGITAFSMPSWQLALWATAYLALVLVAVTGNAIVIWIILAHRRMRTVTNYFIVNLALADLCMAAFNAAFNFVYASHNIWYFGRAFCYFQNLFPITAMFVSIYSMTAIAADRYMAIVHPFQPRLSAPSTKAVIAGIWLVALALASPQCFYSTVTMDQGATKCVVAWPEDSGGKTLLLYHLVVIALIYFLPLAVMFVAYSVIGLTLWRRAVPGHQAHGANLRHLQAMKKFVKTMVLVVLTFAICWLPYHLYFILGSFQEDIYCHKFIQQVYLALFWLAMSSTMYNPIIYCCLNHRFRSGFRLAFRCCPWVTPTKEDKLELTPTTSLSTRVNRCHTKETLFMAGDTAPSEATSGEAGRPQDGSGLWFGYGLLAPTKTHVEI

[9] = DRUGMATRIX: Sigma2 radioligand binding (ligand: [3H] Ifenprodil); assay type: cell membranes, Rattus norvegicus, Wistar, Brain, Membrane; details: Not Active = under 50% inhibition at 10 µM
Leukotriene C4 synthase = molecular target: T3, Leukotriene C4 synthase (Cavia porcellus, UniProt A6XA80); test: biochemical; assay type: tissue-based, Lung
T3 sequence (A6XA80 whole entry): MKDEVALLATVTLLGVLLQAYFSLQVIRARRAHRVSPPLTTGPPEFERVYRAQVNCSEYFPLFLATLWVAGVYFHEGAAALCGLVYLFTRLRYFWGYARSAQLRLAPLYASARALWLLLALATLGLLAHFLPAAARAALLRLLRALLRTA

[10] = molecular target: T4, C-C chemokine receptor type 4 (Homo sapiens, UniProt P51679); assay type: cell membranes, Membrane; details: chem-1; also: in other assays of this panel Not Active means under 50% inhibition at 10 µM
T4 sequence (P51679 whole entry): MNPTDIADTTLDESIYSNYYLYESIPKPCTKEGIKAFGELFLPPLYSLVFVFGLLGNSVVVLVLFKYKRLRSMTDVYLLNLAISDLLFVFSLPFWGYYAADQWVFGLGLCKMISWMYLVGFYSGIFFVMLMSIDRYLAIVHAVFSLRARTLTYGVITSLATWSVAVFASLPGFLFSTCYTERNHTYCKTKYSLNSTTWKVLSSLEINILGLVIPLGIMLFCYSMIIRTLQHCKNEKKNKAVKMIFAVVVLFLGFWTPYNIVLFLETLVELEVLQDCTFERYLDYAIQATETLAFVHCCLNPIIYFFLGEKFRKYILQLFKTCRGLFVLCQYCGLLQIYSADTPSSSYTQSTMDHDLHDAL

[11] = DRUGMATRIX: Glutamate, Kainate radioligand binding (ligand: [3H] Kainic acid); assay type: cell membranes, Rattus norvegicus, Wistar, Brain, Membrane; details: Not Active = under 50% inhibition at 10 µM
[12] = molecular target: C-C chemokine receptor type 2 (Homo sapiens, UniProt P41597); assay type: cell membranes, CHO-K1, Membrane; details: cho-k1; also: in other assays of this panel Not Active means under 50% inhibition at 10 µM
D(4) dopamine receptor = molecular target: T5, D(4) dopamine receptor (Homo sapiens, UniProt P21917); test: DRUGMATRIX: Dopamine D4.2 radioligand binding (ligand: [3H] Spiperone); assay type: cell membranes, CHO-K1, Membrane; details: cho-k1; Not Active = under 50% inhibition at 10 µM
T5 sequence (P21917 whole entry): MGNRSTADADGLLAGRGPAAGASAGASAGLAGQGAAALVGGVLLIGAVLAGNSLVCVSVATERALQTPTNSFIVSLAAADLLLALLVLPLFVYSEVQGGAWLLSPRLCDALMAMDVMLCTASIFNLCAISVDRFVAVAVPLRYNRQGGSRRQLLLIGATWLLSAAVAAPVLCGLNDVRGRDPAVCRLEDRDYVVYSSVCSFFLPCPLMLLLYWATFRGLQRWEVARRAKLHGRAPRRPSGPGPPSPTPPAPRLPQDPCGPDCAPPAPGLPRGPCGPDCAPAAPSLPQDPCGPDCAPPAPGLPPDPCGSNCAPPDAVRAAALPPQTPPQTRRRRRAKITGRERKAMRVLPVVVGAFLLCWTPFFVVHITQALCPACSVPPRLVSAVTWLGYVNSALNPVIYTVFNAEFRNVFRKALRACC

Cytochrome P450 2C19, sequence (P33261 whole entry): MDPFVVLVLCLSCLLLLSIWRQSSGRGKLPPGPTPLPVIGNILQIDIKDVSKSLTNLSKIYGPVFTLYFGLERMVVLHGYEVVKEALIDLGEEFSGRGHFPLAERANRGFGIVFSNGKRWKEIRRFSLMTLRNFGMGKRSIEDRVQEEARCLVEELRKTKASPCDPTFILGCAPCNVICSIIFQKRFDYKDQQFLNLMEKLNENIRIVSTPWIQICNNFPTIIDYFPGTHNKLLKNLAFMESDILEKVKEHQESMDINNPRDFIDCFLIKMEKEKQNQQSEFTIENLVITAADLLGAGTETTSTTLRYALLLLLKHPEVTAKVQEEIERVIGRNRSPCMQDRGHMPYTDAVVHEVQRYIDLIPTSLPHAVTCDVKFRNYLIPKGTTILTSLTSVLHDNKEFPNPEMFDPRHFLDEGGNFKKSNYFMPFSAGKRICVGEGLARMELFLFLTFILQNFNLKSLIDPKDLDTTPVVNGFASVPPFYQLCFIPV
5-hydroxytryptamine receptor 4, sequence (O70528 whole entry): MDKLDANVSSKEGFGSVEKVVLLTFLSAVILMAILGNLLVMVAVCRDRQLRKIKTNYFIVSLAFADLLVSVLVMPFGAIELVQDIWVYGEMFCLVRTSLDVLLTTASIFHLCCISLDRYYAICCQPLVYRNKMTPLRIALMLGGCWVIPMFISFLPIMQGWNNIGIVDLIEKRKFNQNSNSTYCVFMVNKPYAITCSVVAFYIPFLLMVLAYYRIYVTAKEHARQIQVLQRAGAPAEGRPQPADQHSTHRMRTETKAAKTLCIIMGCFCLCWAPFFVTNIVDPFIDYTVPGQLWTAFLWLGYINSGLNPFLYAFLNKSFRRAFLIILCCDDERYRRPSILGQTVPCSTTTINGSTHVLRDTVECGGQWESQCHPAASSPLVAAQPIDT
Tyrosine-protein kinase Fyn, sequence (P06241 whole entry): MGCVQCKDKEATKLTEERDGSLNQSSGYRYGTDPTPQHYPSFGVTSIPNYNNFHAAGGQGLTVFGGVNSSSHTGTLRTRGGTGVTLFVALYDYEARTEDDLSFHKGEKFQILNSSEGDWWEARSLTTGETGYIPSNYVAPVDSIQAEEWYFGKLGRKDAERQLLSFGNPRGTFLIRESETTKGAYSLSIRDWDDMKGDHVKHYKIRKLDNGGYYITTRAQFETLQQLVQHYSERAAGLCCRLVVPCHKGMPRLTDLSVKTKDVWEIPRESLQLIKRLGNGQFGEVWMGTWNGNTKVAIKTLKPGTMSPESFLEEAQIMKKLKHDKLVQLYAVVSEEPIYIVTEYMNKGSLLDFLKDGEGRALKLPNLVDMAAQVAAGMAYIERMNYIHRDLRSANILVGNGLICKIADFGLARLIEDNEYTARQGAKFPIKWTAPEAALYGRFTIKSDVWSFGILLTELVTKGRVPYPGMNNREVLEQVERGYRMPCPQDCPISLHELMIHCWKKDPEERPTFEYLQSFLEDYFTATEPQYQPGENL
C-C chemokine receptor type 2, sequence (P41597 whole entry): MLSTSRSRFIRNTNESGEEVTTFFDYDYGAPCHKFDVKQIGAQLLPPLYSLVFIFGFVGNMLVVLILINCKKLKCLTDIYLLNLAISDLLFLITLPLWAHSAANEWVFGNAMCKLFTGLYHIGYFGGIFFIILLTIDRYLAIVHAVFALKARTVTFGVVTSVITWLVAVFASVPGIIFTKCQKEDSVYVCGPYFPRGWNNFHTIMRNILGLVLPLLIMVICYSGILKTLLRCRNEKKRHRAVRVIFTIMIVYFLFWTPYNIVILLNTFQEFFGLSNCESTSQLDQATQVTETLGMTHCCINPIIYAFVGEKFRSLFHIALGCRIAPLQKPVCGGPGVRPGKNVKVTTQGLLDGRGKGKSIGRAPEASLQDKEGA
Sodium-dependent dopamine transporter, sequence (Q01959 whole entry): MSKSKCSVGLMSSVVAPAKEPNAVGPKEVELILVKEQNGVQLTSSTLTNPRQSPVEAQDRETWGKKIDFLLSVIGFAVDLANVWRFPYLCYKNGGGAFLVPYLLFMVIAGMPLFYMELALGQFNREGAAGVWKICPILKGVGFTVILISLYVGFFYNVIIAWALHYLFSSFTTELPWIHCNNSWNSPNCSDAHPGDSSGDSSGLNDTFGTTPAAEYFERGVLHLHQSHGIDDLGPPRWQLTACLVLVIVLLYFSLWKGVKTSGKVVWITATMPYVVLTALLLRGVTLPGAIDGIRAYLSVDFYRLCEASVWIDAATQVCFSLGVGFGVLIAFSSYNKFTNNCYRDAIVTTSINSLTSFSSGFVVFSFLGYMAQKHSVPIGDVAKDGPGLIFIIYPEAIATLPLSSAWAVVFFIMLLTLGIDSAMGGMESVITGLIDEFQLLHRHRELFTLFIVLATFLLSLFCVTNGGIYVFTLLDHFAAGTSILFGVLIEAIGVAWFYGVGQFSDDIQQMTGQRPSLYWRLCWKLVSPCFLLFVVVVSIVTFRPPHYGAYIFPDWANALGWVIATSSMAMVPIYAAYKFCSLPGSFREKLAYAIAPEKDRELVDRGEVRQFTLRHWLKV
Beta-3 adrenergic receptor, sequence (P13945 whole entry): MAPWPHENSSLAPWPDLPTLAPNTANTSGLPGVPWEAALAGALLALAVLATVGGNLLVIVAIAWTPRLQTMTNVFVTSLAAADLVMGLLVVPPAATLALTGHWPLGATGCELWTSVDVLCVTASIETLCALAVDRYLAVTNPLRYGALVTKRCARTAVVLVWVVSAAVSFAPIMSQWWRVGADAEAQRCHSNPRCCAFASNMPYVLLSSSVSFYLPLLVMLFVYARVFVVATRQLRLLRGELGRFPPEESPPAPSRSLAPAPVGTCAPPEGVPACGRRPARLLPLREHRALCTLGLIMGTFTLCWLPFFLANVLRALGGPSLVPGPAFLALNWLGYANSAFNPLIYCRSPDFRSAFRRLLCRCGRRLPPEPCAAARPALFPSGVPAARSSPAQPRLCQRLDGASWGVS
Histamine H2 receptor, sequence (P25021 whole entry): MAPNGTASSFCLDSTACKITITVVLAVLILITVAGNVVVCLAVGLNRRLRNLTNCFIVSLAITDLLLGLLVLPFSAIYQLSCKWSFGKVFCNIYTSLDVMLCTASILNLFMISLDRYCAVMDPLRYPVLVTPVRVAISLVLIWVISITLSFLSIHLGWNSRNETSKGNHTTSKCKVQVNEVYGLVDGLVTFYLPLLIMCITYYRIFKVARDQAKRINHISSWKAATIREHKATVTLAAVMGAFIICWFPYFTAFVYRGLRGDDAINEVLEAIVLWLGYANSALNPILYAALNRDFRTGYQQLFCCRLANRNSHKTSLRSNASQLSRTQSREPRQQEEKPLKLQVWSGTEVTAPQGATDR

CN1CCC[C@H]1c1cccnc1 [NICOTINE]
Not Active: IC50 [1] | IC50 [2] | Ki [2] | IC50 [3] | IC50 [4] | Ki [4] | IC50 (Cytochrome P450 2C19) | Ki (Cytochrome P450 2C19) | IC50 [5] | Ki [5] | IC50 [6] | IC50 [7] | IC50 [8] | IC50 (Histamine H2 receptor) | IC50 (Substance-K receptor) | IC50 [9] | Ki [9] | IC50 (Leukotriene C4 synthase) | IC50 [10] | IC50 [11] | Ki [11] | IC50 [12] | IC50 (D(4) dopamine receptor)

O=C1CN=C(c2ccccc2)c2cc([N+](=O)[O-])ccc2N1 [NITRAZEPAM]
Not Active: IC50 [1] | IC50 [2] | Ki [2] | IC50 [3] | IC50 [4] | Ki [4] | IC50 (Cytochrome P450 2C19) | Ki (Cytochrome P450 2C19) | IC50 [5] | Ki [5] | IC50 [6] | IC50 [7] | IC50 [8] | IC50 (Histamine H2 receptor) | IC50 (Substance-K receptor) | IC50 [9] | Ki [9] | IC50 (Leukotriene C4 synthase) | IC50 [10] | IC50 [11] | Ki [11] | IC50 [12] | IC50 (D(4) dopamine receptor)

CC1COc2c(N3CCN(C)CC3)c(F)cc3c(=O)c(C(=O)O)cn1c23 (centres undefined) [OFLOXACIN]
Not Active: IC50 [1] | IC50 [2] | Ki [2] | IC50 [3] | IC50 [4] | Ki [4] | IC50 (Cytochrome P450 2C19) | Ki (Cytochrome P450 2C19) | IC50 [5] | Ki [5] | IC50 [6] | IC50 [7] | IC50 [8] | IC50 (Histamine H2 receptor) | IC50 (Substance-K receptor) | IC50 [9] | Ki [9] | IC50 (Leukotriene C4 synthase) | IC50 [10] | IC50 [11] | Ki [11] | IC50 [12] | IC50 (D(4) dopamine receptor)
